Data reported in ChEMBL document CHEMBL3045556, “Effect of temperature on the toxicity of several insecticides to Apolygus lucorum (Heteroptera: Miridae)” (2012).
≈ marks a conversion by molar mass, not a printed value.

Tests used:
Type in all cases: functional
[1] = test system: Apolygus lucorum; assay: Insecticidal activity against third-instar Apolygus lucorum reared in asparagus bean pod assessed as mortality administered by dipping pods in compound solution measured after 48 hr at 30 degC
[2] = test system: Apolygus lucorum; assay: Insecticidal activity against third-instar Apolygus lucorum reared in asparagus bean pod assessed as mortality administered by dipping pods in compound solution measured after 48 hr at 20 degC
[3] = test system: Apolygus lucorum; assay: Insecticidal activity against third-instar Apolygus lucorum reared in asparagus bean pod assessed as mortality administered by dipping pods in compound solution measured after 48 hr at 15 degC
[4] = test system: Apolygus lucorum; assay: Ratio of LC50 for third-instar Apolygus lucorum reared in asparagus bean pod at 15 degC to LC50 for third-instar Apolygus lucorum reared in asparagus bean pod at 25 degC
[5] = test system: Apolygus lucorum; assay: Insecticidal activity against third-instar Apolygus lucorum reared in asparagus bean pod assessed as mortality administered by dipping pods in compound solution measured after 48 hr at 35 degC
[6] = test system: Apolygus lucorum; assay: Insecticidal activity against third-instar Apolygus lucorum reared in asparagus bean pod assessed as mortality administered by dipping pods in compound solution measured after 48 hr at 25 degC
[7] = test system: Apolygus lucorum; assay: Ratio of LC50 for third-instar Apolygus lucorum reared in asparagus bean pod at 15 degC to LC50 for third-instar Apolygus lucorum reared in asparagus bean pod at 30 degC
[8] = test system: Apolygus lucorum; assay: Ratio of LC50 for third-instar Apolygus lucorum reared in asparagus bean pod at 15 degC to LC50 for third-instar Apolygus lucorum reared in asparagus bean pod at 20 degC
[9] = test system: Apolygus lucorum; assay: Ratio of LC50 for third-instar Apolygus lucorum reared in asparagus bean pod at 15 degC to LC50 for third-instar Apolygus lucorum reared in asparagus bean pod at 35 degC
[10] = test system: Apolygus lucorum; assay: Ratio of LC50 for third-instar Apolygus lucorum reared in asparagus bean pod at 30 degC to LC50 for third-instar Apolygus lucorum reared in asparagus bean pod at 15 degC
[11] = test system: Apolygus lucorum; assay: Ratio of LC50 for third-instar Apolygus lucorum reared in asparagus bean pod at 35 degC to LC50 for third-instar Apolygus lucorum reared in asparagus bean pod at 15 degC
[12] = test system: Apolygus lucorum; assay: Ratio of LC50 for third-instar Apolygus lucorum reared in asparagus bean pod at 25 degC to LC50 for third-instar Apolygus lucorum reared in asparagus bean pod at 15 degC
[13] = test system: Apolygus lucorum; assay: Ratio of LC50 for third-instar Apolygus lucorum reared in asparagus bean pod at 20 degC to LC50 for third-instar Apolygus lucorum reared in asparagus bean pod at 15 degC

| SMILES | LC50 [1] | LC50 [2] | LC50 [3] | RatioLC50 [4] | LC50 [5] | LC50 [6] | RatioLC50 [7] | RatioLC50 [8] | RatioLC50 [9] | RatioLC50 [10] | RatioLC50 [11] | RatioLC50 [12] | RatioLC50 [13] |
| --- | --- | --- | --- | --- | --- | --- | --- | --- | --- | --- | --- | --- | --- |
| C/C(=N\C#N)N(C)Cc1ccc(Cl)nc1 [ACETAMIPRID] | 264.02 µg/mL (≈ 1190 µM) | 972.05 µg/mL (≈ 4370 µM) | 1613.76 µg/mL (≈ 7250 µM) | 3.83 | 181.95 µg/mL (≈ 817 µM) | 420.95 µg/mL (≈ 1890 µM) | 6.11 | 1.66 | 8.87 | – | – | – | – |
| CC1(C)[C@H](C=C(Cl)Cl)[C@H]1C(=O)O[C@@H](C#N)c1cccc(Oc2ccccc2)c1 [BETA-CYPERMETHRIN] | 28.44 µg/mL (≈ 68.3 µM) | 14.86 µg/mL (≈ 35.7 µM) | 0.4 µg/mL (≈ 0.961 µM) | – | 20.78 µg/mL (≈ 49.9 µM) | 11.83 µg/mL (≈ 28.4 µM) | – | – | – | 70.27 | 51.35 | 29.23 | 36.72 |
| CCCCN(CCCC)SN(C)C(=O)Oc1cccc2c1OC(C)(C)C2 [CARBOSULFAN] | 246.4 µg/mL (≈ 647 µM) | 116.07 µg/mL (≈ 305 µM) | 274.15 µg/mL (≈ 720 µM) | 1.37 | 156.75 µg/mL (≈ 412 µM) | 199.4 µg/mL (≈ 524 µM) | 1.12 | 2.36 | 1.75 | – | – | – | – |
| N#Cc1nn(-c2c(Cl)cc(C(F)(F)F)cc2Cl)c(N)c1[S+]([O-])C(F)(F)F (configuration not stated) [FIPRONIL] | 0.33 µg/mL (≈ 0.755 µM) | 1.69 µg/mL (≈ 3.87 µM) | 0.34 µg/mL (≈ 0.778 µM) | – | 0.1 µg/mL (≈ 0.229 µM) | 0.72 µg/mL (≈ 1.65 µM) | 1.03 | – | 3.4 | – | – | 2.12 | 5.76 |
| CC1(C)C(/C=C(\Cl)C(F)(F)F)C1C(=O)O[C@@H](C#N)c1cccc(Oc2ccccc2)c1 (some centres not stated) [GAMA-CYHALOTHRIN] | 72.22 µg/mL (≈ 161 µM) | 25.6 µg/mL (≈ 56.9 µM) | 25.28 µg/mL (≈ 56.2 µM) | – | 95.03 µg/mL (≈ 211 µM) | 27.96 µg/mL (≈ 62.2 µM) | – | – | – | 2.86 | 3.76 | 1.11 | 1.01 |
| O=[N+]([O-])/N=C1\NCCN1Cc1ccc(Cl)nc1 [IMIDACLOPRID] | 238.47 µg/mL (≈ 933 µM) | 1507.97 µg/mL (≈ 5900 µM) | 3324.02 µg/mL (≈ 13000 µM) | 3.24 | 148.05 µg/mL (≈ 579 µM) | 1025.9 µg/mL (≈ 4010 µM) | 13.94 | 2.2 | 22.45 | – | – | – | – |
| CNC(=O)ON=C(C)SC [METHOMYL] | 1108.75 µg/mL (≈ 6840 µM) | 564.28 µg/mL (≈ 3480 µM) | 482.96 µg/mL (≈ 2980 µM) | – | 731.98 µg/mL (≈ 4510 µM) | 895.41 µg/mL (≈ 5520 µM) | – | – | – | 2.3 | 1.52 | 1.85 | 1.17 |
| CCOP(=S)(OCC)O/N=C(\C#N)c1ccccc1 [PHOXIM] | 196.5 µg/mL (≈ 659 µM) | 156.17 µg/mL (≈ 524 µM) | 198.24 µg/mL (≈ 665 µM) | – | 173.53 µg/mL (≈ 582 µM) | 237.93 µg/mL (≈ 798 µM) | 1.01 | 1.27 | 1.14 | – | – | 1.2 | – |
